The source made the active and inactive calls.
What was measured:
CAAX prenyl protease 2 = CAAX prenyl protease 2 (Homo sapiens, UniProt Q9Y256); experiment: inhibition of Ras-converting CAAX protease Rce1 – biochemical, yeast membranes, quenched-peptide fluorescence, cherry-pick, dose response (AID 588849)
[1] = Luminescence Cell-Based Dose Response HTS to Identify Activators of 5'UTR Stem-Loop Driven Prion Protein mRNA Translation in H4-C Neuroglioblastoma Cells. [Related pubchem assays: 1829 (Project Summary), 1814 (Primary HTS)]; type: functional
[2] = alpha-synuclein stem-loop luciferase translation blockers – H4 neuroglioma cells, luminescence, confirmation (AID 1988); type: functional, cell-based
ORF 73 = ORF 73 (Human herpesvirus 8, UniProt O40947); experiment: KSHV LANA DNA-binding disruption – biochemical, fluorescence polarization, cherry-picked samples, dose response (AID 504725); parameters: species or system Human gammaherpesvirus 8;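 also: fluorescence polarization of a labeled DNA duplex reporting LANA DNA binding; potency is for inhibitors that block LANA binding to the DNA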
[3] = Luminescence Cell-Based Dose Response HTS to Identify Activators of Luciferase Translation or Activity in H4-C Neuroglioblastoma Cells. [Related pubchem assays: 1829 (Project Summary), 1814 (Primary HTS)]; type: functional
[4] = molecular target: UDP-galactopyranose mutase (Mycobacterium tuberculosis, UniProt P9WIQ1); experiment: Inhibitors of Mycobacterium tuberculosis UDP-galactopyranose mutase (UGM) enzyme Measured in Biochemical System Using Plate Reader - 2105-02_Inhibitor_Dose_CherryPick_Activity. [Related pubchem assays (depositor defined):AID504439]
[5] = Luminescence Cell-Based Dose Confirmation HTS to Identify Inhibitors of 5'UTR Stem-Loop Driven Alpha-Synuclein mRNA Translation in H4 Neuroglioblastoma Cells. [Related pubchem assays: 1827 (Project Summary), 1813 (Primary HTS)]; type: functional
Troponin, cardiac muscle = Troponin, cardiac muscle (Homo sapiens, UniProt P19429+P45379+P63316); experiment: Fluorescence-based biochemical high throughput dose response assay for activators of the calcium sensitivity of cardiac Regulated Thin Filaments (RTF). [Related pubchem assays (depositor defined):AID493008, AID493018, AID504382, AID504383]; type: protein-complex assay
[6] = luciferase reporter signal suppression in cells – H4 neuroglioma cells, luminescence, dose response (AID 1990); type: functional, cell-based
HeLa = experiment: viability loss in HeLa cells – cell-based, 24 h, cherry-picked samples, cytotoxicity control, dose response (AID 504726); type: functional; details: Homo sapiens;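 also: potency for cytotoxicity as loss of luminescence signal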
[7] = Luminescence Cell-Based Dose Response HTS to Identify Inhibitors of 5'UTR Stem-Loop Driven Prion Protein mRNA Translation in H4 Neuroglioblastoma Cells. [Related pubchem assays: 1827 (Project Summary), 1813 (Primary HTS)]; type: functional
[8] = Luminescence Cell-Based Dose HTS Response to Identify Inhibitors of 5'UTR Stem-Loop Driven Prion Protein mRNA Translation in H4-C Neuroglioblastoma Cells. [Related pubchem assays (depositor defined):AID1814, AID1827]; type: functional
[9] = Luminescence Cell-Based Dose Retest to Confirm Activators of 5'UTR Stem-Loop Driven Alpha-Synuclein mRNA Translation in H4 Neuroglioblastoma Cells. [Related pubchem assays (depositor defined):AID1813, AID1829]; type: functional
Keap1/Nrf2 = Keap1/Nrf2 (Homo sapiens, UniProt Q14145); experiment: disruptors of Keap1 binding to Nrf2 peptide – biochemical, fluorescence polarization, cherry-picked samples, dose response (AID 588683)
[10] = Luminescence Cell-Based Dose Response HTS to Identify Inhibitors of Luciferase Translation or Activity in H4-C Neuroglioblastoma Cells. [Related pubchem assays: 1813 (Primary HTS), 1827 (Project Summary)]; type: functional
[11] = fluconazole-exposed Candida albicans growth modulators – fluorescence, retest, confirmation (AID 2467); type: functional, cell-based
[12] = NIH-3T3 fibroblast cytotoxicity, dose response, cytotoxicity control, cell-based, fluorescence, Alamar Blue, secondary assay (AID 2327); type: functional;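 also: NIH-3T3 mouse fibroblasts cultured with fluconazole at 8 µg/mL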
[13] = molecular target: Serine/threonine-protein phosphatase (Candida dubliniensis (strain CD36 / CBS 7987 / NCPF 3949 / NRRLY-17841) (Yeast), UniProt B9W6M3); experiment: blockers of CaCl2-induced CDRE-lacZ signaling – S. cerevisiae, luminescence, secondary, dose response (AID 2388); type: functional, cell-based;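 also: yeast reporter cells carrying a calcineurin-responsive lacZ construct stimulated with calcium chloride; luminescent beta-galactosidase reporter signal in whole cells rather than isolated phosphatase activity; potency for inhibition where a drop in reporter signal means calcineurin blockade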
[14] = molecular target: ATP-dependent molecular chaperone HSP82 (Candida albicans (strain WO-1) (Yeast), UniProt C4YTQ8); experiment: steroid-induced GRE reporter decrease in yeast – S. cerevisiae, luminescence, Hsp90 inhibitor project, dose response (AID 2400); type: functional, cell-based;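 also: beta-galactosidase luminescence from glucocorticoid response element reporter as proxy for Hsp90 function; inhibitor potency where signal loss means Hsp90 inhibition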
Hexokinase-1 = Hexokinase-1 (Homo sapiens, UniProt P19367); experiment: hexokinase 1 activity inhibitors, potency – biochemical, set 2, resazurin fluorescence coupled readout, selectivity assay for HKDC1 inhibitor project, SAR follow-up (AID 588356); type: functional
Hexokinase HKDC1 = molecular target: T1, Hexokinase HKDC1 (Homo sapiens, UniProt Q2TB90); experiment: analog inhibition of human HKDC1 activity – biochemical, set 2, SAR follow-up (AID 588355); type: functional
T1 sequence (Q2TB90 whole entry): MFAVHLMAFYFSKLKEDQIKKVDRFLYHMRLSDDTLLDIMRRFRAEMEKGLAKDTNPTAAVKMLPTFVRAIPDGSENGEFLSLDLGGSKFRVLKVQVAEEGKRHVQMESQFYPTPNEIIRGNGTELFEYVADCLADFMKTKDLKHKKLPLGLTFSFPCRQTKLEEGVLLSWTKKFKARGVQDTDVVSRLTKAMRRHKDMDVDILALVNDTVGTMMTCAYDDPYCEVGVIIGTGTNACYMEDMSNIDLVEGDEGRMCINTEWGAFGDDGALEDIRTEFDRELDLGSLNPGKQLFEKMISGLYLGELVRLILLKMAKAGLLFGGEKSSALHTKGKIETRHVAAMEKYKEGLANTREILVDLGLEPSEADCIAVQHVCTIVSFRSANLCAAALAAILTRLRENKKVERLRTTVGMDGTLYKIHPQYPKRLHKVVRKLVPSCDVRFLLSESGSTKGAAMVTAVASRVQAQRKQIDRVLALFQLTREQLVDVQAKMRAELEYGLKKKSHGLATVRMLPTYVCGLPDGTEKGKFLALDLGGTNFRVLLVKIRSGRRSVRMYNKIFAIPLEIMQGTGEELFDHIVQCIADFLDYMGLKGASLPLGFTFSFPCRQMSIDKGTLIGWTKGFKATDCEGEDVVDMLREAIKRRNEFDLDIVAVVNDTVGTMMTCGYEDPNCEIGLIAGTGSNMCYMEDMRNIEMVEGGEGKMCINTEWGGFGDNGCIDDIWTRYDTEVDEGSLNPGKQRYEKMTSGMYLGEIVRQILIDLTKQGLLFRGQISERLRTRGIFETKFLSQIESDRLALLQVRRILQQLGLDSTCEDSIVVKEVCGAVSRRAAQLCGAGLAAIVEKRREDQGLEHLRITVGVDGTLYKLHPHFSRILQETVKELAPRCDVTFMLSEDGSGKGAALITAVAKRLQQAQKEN

[15] = molecular target: T2, Voltage-gated inwardly rectifying potassium channel KCNH2 (Homo sapiens, UniProt Q12809); details: Potency;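 also: confirmatory quantitative high-throughput screen measuring inhibition of hERG channel activity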
[16] = molecular target: T2, Voltage-gated inwardly rectifying potassium channel KCNH2

T2 sequence (Q12809 whole entry): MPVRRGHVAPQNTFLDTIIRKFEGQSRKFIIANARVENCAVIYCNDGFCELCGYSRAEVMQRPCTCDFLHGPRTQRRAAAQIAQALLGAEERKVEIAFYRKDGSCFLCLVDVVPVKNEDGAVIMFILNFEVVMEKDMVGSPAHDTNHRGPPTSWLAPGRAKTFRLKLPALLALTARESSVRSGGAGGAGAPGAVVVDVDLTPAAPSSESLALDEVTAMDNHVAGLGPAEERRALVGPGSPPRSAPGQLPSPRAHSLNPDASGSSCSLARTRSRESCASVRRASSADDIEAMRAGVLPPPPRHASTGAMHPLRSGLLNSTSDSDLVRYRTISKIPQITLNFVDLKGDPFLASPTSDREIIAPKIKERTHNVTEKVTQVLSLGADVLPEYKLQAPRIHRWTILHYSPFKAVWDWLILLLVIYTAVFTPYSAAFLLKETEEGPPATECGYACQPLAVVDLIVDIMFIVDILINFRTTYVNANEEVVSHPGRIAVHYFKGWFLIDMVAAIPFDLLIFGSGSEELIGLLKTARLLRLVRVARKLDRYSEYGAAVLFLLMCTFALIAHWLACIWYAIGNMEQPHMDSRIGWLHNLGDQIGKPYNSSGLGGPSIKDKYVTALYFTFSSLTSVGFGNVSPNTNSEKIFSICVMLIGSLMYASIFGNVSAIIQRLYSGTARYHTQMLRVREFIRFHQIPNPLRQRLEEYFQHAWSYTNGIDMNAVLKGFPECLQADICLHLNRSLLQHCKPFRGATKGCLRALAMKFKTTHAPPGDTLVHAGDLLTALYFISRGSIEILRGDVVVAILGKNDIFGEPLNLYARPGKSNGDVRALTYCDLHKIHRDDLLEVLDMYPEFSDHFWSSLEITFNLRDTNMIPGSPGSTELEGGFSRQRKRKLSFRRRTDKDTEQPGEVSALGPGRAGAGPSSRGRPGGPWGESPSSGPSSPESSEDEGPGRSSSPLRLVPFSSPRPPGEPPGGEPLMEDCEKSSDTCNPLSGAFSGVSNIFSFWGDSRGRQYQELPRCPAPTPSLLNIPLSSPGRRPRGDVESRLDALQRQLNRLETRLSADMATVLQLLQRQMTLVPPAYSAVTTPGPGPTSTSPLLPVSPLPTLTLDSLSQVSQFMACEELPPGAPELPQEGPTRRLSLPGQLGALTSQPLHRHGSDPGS
Sequence of Keap1/Nrf2 (Q16236 whole entry): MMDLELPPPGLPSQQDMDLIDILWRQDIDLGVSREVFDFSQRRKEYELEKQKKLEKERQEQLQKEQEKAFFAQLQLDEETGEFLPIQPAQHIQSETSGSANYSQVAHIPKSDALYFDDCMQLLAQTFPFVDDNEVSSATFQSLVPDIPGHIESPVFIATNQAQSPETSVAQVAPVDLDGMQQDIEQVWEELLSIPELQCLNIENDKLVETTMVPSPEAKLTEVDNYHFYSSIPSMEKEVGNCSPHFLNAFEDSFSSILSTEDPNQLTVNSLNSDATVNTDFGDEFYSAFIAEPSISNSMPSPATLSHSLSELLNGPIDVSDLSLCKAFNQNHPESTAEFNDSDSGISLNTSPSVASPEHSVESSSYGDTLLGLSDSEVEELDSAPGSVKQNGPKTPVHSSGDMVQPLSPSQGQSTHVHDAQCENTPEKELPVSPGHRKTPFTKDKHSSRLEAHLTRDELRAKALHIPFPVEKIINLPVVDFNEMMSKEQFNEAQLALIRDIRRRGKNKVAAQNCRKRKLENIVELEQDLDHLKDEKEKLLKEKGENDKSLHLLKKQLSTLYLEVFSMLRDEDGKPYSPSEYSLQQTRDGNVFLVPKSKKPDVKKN
Sequence of Keap1/Nrf2 (Q14145 whole entry): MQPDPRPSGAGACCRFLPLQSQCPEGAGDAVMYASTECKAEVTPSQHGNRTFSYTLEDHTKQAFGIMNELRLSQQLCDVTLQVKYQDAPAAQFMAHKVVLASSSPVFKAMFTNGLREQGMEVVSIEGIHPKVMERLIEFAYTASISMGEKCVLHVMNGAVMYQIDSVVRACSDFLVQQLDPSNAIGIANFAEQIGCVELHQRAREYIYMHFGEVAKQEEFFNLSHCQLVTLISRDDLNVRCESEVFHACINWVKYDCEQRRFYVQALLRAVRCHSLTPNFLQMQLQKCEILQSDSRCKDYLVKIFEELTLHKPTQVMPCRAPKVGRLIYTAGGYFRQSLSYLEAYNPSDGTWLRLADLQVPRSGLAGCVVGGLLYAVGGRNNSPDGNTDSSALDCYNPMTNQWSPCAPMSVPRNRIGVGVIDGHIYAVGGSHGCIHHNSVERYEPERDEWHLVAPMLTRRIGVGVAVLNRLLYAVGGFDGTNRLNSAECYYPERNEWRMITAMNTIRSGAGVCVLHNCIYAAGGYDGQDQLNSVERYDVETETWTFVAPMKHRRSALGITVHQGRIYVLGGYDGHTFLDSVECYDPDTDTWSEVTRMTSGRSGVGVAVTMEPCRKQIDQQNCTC
Sequence of ORF 73 (O40947 whole entry): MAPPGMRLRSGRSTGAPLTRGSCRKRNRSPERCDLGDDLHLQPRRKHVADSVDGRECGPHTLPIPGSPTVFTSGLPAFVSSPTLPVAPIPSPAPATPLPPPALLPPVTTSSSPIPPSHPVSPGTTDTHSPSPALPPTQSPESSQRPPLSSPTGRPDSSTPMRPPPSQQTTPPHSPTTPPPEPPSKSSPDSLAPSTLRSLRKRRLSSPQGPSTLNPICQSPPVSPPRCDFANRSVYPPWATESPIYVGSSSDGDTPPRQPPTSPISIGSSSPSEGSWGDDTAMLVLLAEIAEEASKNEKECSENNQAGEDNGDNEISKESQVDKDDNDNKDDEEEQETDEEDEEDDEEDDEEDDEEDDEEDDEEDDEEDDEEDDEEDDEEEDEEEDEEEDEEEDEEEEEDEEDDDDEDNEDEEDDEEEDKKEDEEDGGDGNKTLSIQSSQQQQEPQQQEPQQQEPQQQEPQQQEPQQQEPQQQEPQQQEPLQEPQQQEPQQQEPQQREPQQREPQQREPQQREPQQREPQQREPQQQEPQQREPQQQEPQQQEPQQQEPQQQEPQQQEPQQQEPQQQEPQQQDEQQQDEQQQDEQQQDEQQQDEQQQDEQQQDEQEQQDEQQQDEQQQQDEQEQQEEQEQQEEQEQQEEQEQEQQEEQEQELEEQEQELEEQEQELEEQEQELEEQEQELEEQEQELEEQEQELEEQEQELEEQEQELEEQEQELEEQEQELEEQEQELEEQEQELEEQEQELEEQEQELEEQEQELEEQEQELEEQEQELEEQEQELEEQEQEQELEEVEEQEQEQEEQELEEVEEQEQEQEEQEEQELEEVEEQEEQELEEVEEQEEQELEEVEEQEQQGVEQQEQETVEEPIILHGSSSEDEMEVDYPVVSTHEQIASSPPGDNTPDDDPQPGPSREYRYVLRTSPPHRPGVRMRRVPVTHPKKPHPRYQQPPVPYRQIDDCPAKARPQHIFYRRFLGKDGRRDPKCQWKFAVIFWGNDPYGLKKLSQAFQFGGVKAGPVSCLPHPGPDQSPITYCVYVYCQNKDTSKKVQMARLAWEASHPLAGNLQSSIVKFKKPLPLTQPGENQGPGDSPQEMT
Sequence of Serine/threonine-protein phosphatase (B9W6M3 whole entry): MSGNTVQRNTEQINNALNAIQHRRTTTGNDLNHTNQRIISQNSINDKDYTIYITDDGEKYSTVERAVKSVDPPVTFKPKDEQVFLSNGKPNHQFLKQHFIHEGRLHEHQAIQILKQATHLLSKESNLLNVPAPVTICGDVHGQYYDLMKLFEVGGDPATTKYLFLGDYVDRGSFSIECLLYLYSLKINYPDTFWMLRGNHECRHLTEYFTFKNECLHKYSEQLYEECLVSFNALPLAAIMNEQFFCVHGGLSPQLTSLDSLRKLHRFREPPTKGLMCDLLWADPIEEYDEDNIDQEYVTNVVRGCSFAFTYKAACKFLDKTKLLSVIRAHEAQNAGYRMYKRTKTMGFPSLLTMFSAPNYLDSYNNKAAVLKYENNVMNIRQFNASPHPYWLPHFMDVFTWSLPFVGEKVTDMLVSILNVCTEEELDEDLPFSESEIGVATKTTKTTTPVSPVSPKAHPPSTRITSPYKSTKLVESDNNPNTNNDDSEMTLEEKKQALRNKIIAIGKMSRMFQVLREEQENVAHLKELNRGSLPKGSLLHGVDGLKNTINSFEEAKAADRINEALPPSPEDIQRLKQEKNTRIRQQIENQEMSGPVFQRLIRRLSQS
Sequence of UDP-galactopyranose mutase (P9WIQ1 whole entry): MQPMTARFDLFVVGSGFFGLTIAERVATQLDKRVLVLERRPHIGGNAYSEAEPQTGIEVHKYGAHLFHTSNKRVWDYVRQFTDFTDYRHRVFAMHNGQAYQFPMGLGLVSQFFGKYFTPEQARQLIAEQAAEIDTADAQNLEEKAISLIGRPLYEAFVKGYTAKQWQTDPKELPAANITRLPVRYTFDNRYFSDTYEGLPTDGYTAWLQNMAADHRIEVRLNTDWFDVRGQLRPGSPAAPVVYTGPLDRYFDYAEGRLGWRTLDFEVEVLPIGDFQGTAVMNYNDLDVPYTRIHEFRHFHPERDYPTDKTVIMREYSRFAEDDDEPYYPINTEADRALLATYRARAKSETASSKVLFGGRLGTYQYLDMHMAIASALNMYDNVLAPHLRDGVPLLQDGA
Sequence of CAAX prenyl protease 2 (Q9Y256 whole entry): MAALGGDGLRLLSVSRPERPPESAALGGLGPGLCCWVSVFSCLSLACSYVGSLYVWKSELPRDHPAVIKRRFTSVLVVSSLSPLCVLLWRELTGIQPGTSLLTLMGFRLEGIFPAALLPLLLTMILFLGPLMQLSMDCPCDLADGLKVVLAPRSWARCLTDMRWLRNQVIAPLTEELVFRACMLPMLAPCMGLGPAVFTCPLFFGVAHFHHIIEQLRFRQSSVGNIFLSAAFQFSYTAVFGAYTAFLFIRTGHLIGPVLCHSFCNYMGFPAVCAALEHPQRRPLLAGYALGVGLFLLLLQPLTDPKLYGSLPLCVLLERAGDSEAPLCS

Question: For `CC(C)C(NC(=O)c1ccco1)C(=O)NCC(c1ccco1)N1CCCCC1` (stereo not drawn), which AC50 (CAAX prenyl protease 2) is on record?
Answer: 48.9 µM (active)

Question: Which EC50 [1] does the source give for `O=C(OCCN1C(=O)c2cccc3c(N4CCOCC4)ccc(c23)C1=O)c1ccc(Cl)cc1Cl` here?
Answer: 0.722 µM (inconclusive)

Question: What about the EC50 [2] of the same compound?
Answer: 0.331 µM (active)

Question: And the AC50 (ORF 73)?
Answer: 15.5 µM (active)

Question: And the EC50 [3]?
Answer: 2.14 µM (inconclusive)

Question: And the AC50 [4]?
Answer: 5.23 µM (active)

Question: What about the EC50 [5] of the same compound?
Answer: 6.15 µM (active)

Question: What about the EC50 (Troponin, cardiac muscle) of the same compound?
Answer: 1.11 µM (active)

Question: And the EC50 [6]?
Answer: 9.06 µM (inconclusive)

Question: And the AC50 (HeLa)?
Answer: 16.5 µM (active)

Question: And the EC50 [7]?
Answer: 12 µM (active)

Question: What about the EC50 [8] of the same compound?
Answer: 0.722 µM (active)

Question: And the EC50 [9]?
Answer: 6.15 µM (inconclusive)

Question: And the AC50 (Keap1/Nrf2)?
Answer: 7.59 µM (active)

Question: What about the EC50 [10] of the same compound?
Answer: 2.14 µM (active)

Question: For `COc1cc2c(cc1NC(=O)c1ccco1)CCCC2`, which EC50 [11] is on record?
Answer: 0.841 µM (active)

Question: And the EC50 [12]?
Answer: > 150 µM (inactive)

Question: And the EC50 [13]?
Answer: > 180 µM (inactive)

Question: What about the EC50 [14] of the same compound?
Answer: > 150 µM (inactive)

Question: With `COc1cc2c(cc1OC)-c1cc(NCCO)nc(=O)n1CC2` as the compound, how does the IC50 (Hexokinase-1) read?
Answer: > 80 µM (inactive)

Question: And the IC50 (Hexokinase HKDC1)?
Answer: > 80 µM (inactive)

Question: With `CC(C)COC(=O)COc1cc(Cl)c(Cl)cc1Cl` as the compound, how does the AC50 [15] read?
Answer: 39.8 µM (inconclusive)

Question: For `Cl.c1ccc2c(c1)[IH]c1ccccc1-2`, which Potency [16] is on record?
Answer: 35.4813 µM
